Measurements published in patent US11098266B2, “Organic compounds” (Givaudan SA, priority 2017, dated 2021).

How the values were obtained:
yellow mealworm = conditions: J. Agr. Food Chem. 20(1), 1972, 65-69; cited from earlier work
[1] = GC-odor threshold values (gas chromatograph with sniff port, panel of trained evaluators); conditions: for odour threshold value geometric mean: absolute amount delivered at the sniff port, 5 panelists, identical conditions
Excerpt: As used herein, “odor threshold value” means the lowest concentration of a volatile organic compound in air which can be detected by smell. Generally speaking, it can be said that a compound with a low odor threshold value is more powerful than a compound with a high odor threshold value and thus allows the use of very low concentration in a fragrance composition to achieve an olfactory effect.
According to standard procedures known to the person skilled in the art, threshold values for volatile perfumery compounds are determined on a gas chromatograph equipped with a sniff port by a panel of trained evaluators. The lowest concentration smelled by each panelist is recorded as the individual threshold value expressed in ng (absolute amount of compound delivered at the sniff port).
Under identical conditions the odour threshold value for the individual compounds was measured.

[2] = ratio of GC-odour threshold values

| SMILES | juvenile hormone activity (yellow mealworm) | odour threshold value geometric mean [1] [ng] | odour threshold value, times lower compared to Citronellyl Acetate [1, 2] [times] | odour threshold value, times lower compared to Ethyl Citronellyl Carbonate [1, 2] [times] |
| --- | --- | --- | --- | --- |
| CC(C)=CCCC(C)CCOC(=O)Oc1ccccc1 (stereo not drawn) [3,7-Dimethyloct-6-en-1-yl phenyl carbonate] | juvenile hormone activity |  |  |  |
| CC(C)=CCCC(C)CCO (stereo not drawn) [Citronellol, 3,7-dimethyloct-6-en-1-ol] |  | 5.2 |  |  |
| CC(=O)OCCC(C)CCC=C(C)C (stereo not drawn) [Citronellyl Acetate, 3,7-dimethyloct-6-en-1-yl acetate] |  | 241 |  |  |
| CCOC(=O)OCCC(C)CCC=C(C)C (stereo not drawn) [Ethyl Citronellyl Carbonate, 3,7-dimethyloct-6-en-1-yl ethyl carbonate] | juvenile hormone activity | 158 |  |  |
| COC(=O)OCCC(C)CCC=C(C)C (racemic) [Example 1, 3,7-dimethyloct-6-en-1-yl methyl carbonate] | juvenile hormone activity | 16 | 15 | 10 |
